Assay results published in PMC8752738, “A propolis-derived small molecule ameliorates metabolic syndrome in obese mice by targeting the CREB/CRTC2 transcriptional complex” (Nature Communications, 2022).
“And” between values parts separate entries of the source, which are not always exact repeats. Equal entries are not always repeated.

Experiments:
[1] = target: T1, HIS-CREB protein (Homo sapiens, UniProt P16220); assay: Isothermal titration calorimetry; format: binding
T1 construct: made in house
T1 sequence (P16220 whole entry): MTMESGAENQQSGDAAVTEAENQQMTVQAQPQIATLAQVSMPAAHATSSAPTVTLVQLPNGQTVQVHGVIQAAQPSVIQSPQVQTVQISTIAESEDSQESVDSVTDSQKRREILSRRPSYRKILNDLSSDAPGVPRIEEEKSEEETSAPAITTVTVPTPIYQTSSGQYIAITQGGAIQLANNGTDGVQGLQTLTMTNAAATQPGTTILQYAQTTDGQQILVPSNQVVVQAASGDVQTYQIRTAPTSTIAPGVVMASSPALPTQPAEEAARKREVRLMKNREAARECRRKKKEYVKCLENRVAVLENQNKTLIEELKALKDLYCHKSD
Procedure: Isothermal titration calorimetry was performed using a MicroCal iTC200 calorimeter (Freiburg, Germany). The purified HIS-CREB protein and APC were diluted in buffer (PBS with 500 mM NaCl and 10% glycine, pH 8.0). APC solution was titrated by injection of HIS-CREB. The originally released heat from molecules binding was recorded and analyzed by Origin9 software (Origin Lab) supplied with the instrument.

[2] = target: T2, CREB-CRTC2 interaction (Homo sapiens, UniProt P16220); assay: CREB–CRTC2 mammalian two-hybrid assay (GAL4-Luc reporter); format: cell-based
T2 construct: expressed in transfected cells; host or cells: HEK293T
T2 sequence (P16220 whole entry, the tested form may be a part): as the sequence (P16220 whole entry) above

[3] = tested on: AMPK; assay: Phospho-AMPK immunoblot in primary hepatocytes; format: cell-based, mouse; conditions: for relative p-AMPK protein, mean: N=3 (0 μM = 1); for relative p-AMPK protein: Supp. fig.3e, individual replicates
Procedure: (§1) Immunoblotting and immunoprecipitation assays were performed as previously described, with antibodies recognizing CREB, Ser133-P-CREB, AMPK, P-AMPK, AKT, P-AKT (Cell Signaling), PGC-1α (Merck), CRTC2 (Calbiochem), PCK1 (Santa Cruz), SREBP1 (Santa Cruz), SREBP2 (BD), HA (Convance), LXRα (Santa Cruz), FLAG (Sigma), GST (Covance), HIS (Abmart), GAPDH (AOGMA), α-TUBULIN (Abmart), β-ACTIN (Abmart), and other antibodies (Supplementary Table 3). For immunostaining assays, primary cultured hepatocytes seeded on coverslips were fixed with 4% paraformaldehyde for 20 min, permeabilized with 0.3% Triton X-100 in PBS, and then blocked by 5% normal goat serum and 0.3% Triton X-100 in PBS, followed by incubation with anti-CREB (1:1000), anti-P-CREB (1:1000), or anti-HA (1:3000) antibodies for 1 h at 4 °C. Slides were then washed, and after washing, slides were incubated with fluorochrome-conjugated secondary antibodies (Invitrogen). Slides were then washed and mounted with Vectashield mounting media containing 4, 6-diamidino-2-phenylindole (DAPI).
1 Supplementary Figure 3. APC inhibits gluconeogenesis independent of CREB-phosphorylation,
2 cell toxin or AMPK activation. […]
20 e) Phosphate-AMPK level in primary hepatocytes incubated with APC or metformin (MET) at
21 indicated concentrations (0–200 μM) for 30 minutes (top). Relative P-AMPK normalized by AMPK is […]

[4] = tested on: tissue protein levels; assay: Immunoblotting of tissue proteins in treated mice; format: in vivo, mouse; conditions: for Relative LXRa/ACTIN, Mean Diff. (VEH vs. treated) / Relative LXRa/ACTIN, Mean 2 (group mean) / Relative LXRa/ACTIN: Figure 7h; for Relative LXRa/ACTIN, Mean 2 (group mean): N2 = 4; for Relative LXRa/ACTIN: single replicates
Procedure: as §1

[5] = Cholesterol, TG, NEFA and glycerol in serum and liver; format: in vivo, mouse; set-up: liver NEFA, Mean 2 (group mean) / Plasma VLDL cholesterol in db/db mice (VLDL-C) / Plasma VLDL cholesterol in db/db mice, group mean / TC in liver_CT2KO (total cholesterol in the liver of CRTC2-KO) / TC in liver_WT (total cholesterol in the liver) / TC in liver_WT, mean / TC in liver_WT, Mean Diff. VEH vs. drug / TC in liver_CRTC2KO, mean / TC in liver_CRTC2KO, Mean Diff. VEH vs. drug: unit not given here; conditions: for Plasma total cholesterol, Mean 1 (drug group): N 6
Procedure: Serum total cholesterol (TC), LDL cholesterol (LDL-C), and HDL cholesterol (HDL-C) levels were detected using commercial kits (Beihua, China), and serum VLDL protein was determined by ELISA (Jiancheng, China).
The plasma TG and NEFA levels were determined using corresponding kits from Beihua (China) and WAKO (Japan), respectively. The TG levels of liver and WAT were tested by TG kit (Applygene, China). The NEFA in the liver and WAT were extracted by chloroform–methanol and then subjected to NEFA assay (WAKO).

[6] = 200 μM (first of two lines printed 200)
[7] = 200 μM (second of two lines printed 200)
[8] = liver, CRTC2KO mice, drug minus VEH
[9] = liver, CRTC2KO mice, group mean, N=4
[10] = liver, WT mice, group mean, N=4

CCOC(=O)/C=C/c1ccc(O)cc1 [P4, (E)-p-hydroxycinnamic acid ethyl ester]
direct binding with HIS-CREB proteins (ITC) [1]: neither directly bound with HIS-CREB proteins
reporter activity of CREB–CRTC2 two-hybrid assay [2]: nor decreased CREB/CRTC2 interaction

CN(C)C(=N)NC(=N)N [MET]
relative p-AMPK protein, mean ([3]; 5 μM): 1.096
relative p-AMPK protein, mean ([3]; 10 μM): 1.224
relative p-AMPK protein, mean ([3]; 100 μM): 1.394
relative p-AMPK protein, mean [3, 6]: 1.978
relative p-AMPK protein, mean [3, 7]: 2.005
relative p-AMPK protein ([3]; 5 μM): 1.169 (2×) and 0.9483
relative p-AMPK protein ([3]; 10 μM): 1.256 and 1.249 and 1.166
relative p-AMPK protein ([3]; 100 μM): 1.432 and 1.326 and 1.423
relative p-AMPK protein [3, 6]: 2.049 and 1.941 and 1.943
relative p-AMPK protein [3, 7]: 1.966 and 1.951 and 2.098
relative p-AMPK protein, column mean ([3]; mean over all concentrations, 0 μM included): 1.449
Relative LXRa/ACTIN, Mean Diff. (VEH vs. treated) ([4]; CRTC2KO): 0.07206
Relative LXRa/ACTIN, Mean 2 (group mean) ([4]; CRTC2KO): 0.7321
Relative LXRa/ACTIN ([4]; CT2KO): 0.7043 and 0.6782 and 0.684 and 0.8619
Relative LXRa/ACTIN, Mean Diff. (VEH vs. treated) ([4]; WT): 0.1998
Relative LXRa/ACTIN, Mean 2 (group mean) ([4]; WT): 0.6958
Relative LXRa/ACTIN ([4]; WT): 0.7209 and 0.7206 and 0.6711 and 0.6705
SREBP1/ACT IN CT2KO, Mean Diff. vs. VEH [4, 8]: -0.1882
SREBP2/ACT IN CT2KO, Mean Diff. vs. VEH [4, 8]: -0.07501
SREBP1/ACT IN CT2KO, mean [4, 9]: 0.4991
SREBP2/ACT IN CT2KO, mean [4, 9]: 0.6794
SREBP1/ACT IN CT2KO (related SREBP1 protein levels in CRTC2KO liver) ([4]; liver, CRTC2KO mice, individual replicates, Supp.fig.5a left): 0.5276 and 0.4764 and 0.5154 and 0.4771
SREBP2/ACT IN CT2KO (related SREBP2 protein levels in CRTC2KO liver) ([4]; liver, CRTC2KO mice, individual replicates, Supp.fig.5a right): 0.7097 and 0.717 and 0.6322 and 0.6586
SREBP1/ACT IN WT, Mean Diff. vs. VEH ([4]; liver, WT mice, drug minus VEH): -0.1949
SREBP2/ACT IN WT, Mean Diff. vs. VEH ([4]; liver, WT mice, drug minus VEH): -0.2245
SREBP1/ACT IN WT, mean [4, 10]: 0.7683
SREBP2/ACT IN WT, mean [4, 10]: 0.8001
SREBP1/ACT IN WT (related SREBP1 protein levels in liver) ([4]; liver, WT mice, individual replicates, Supp.fig.5a left): 0.8628 and 0.72 and 0.7576 and 0.7329
SREBP2/ACT IN WT (related SREBP2 protein levels in liver) ([4]; liver, WT mice, individual replicates, Supp.fig.5a right): 0.85 and 0.793 and 0.7497 and 0.8079
Plasma total cholesterol, Mean Diff. vs. VEH ([5]; Figure 6h, CRTC2KO mice): 28.04 mg/dL
Plasma total cholesterol, Mean 1 (drug group) ([5]; Figure 6h, CRTC2KO mice, group mean): 246.8 mg/dL
TC in plasma_CRTC2KO (plasma total cholesterol) ([5]; Figure 6h, CRTC2KO mice, individual mice): 232.014 mg/dL and 251.349 mg/dL and 216.160 mg/dL and 260.242 mg/dL and 252.895 mg/dL and 268.363 mg/dL
Plasma total cholesterol, Mean Diff. vs. VEH ([5]; Figure 6h, WT mice): -63.12 mg/dL
Plasma total cholesterol, Mean 1 (drug group) ([5]; Figure 6h, WT mice, group mean): 215.4 mg/dL
TC in plasma_WT (plasma total cholesterol) ([5]; Figure 6h, WT mice, individual mice): 184.451 mg/dL and 247.868 mg/dL and 232.401 mg/dL and 156.610 mg/dL and 233.948 mg/dL and 237.041 mg/dL
TC in liver_CRTC2KO, Mean Diff. VEH vs. drug ([5]; liver, CRTC2-KO mice, VEH minus drug): -4.203
TG in liver_CT2KO, Mean Diff. vs. VEH ([5]; liver, CRTC2-KO mice, drug minus VEH): 5.139 mg/g protein
TC in liver_CRTC2KO, mean ([5]; liver, CRTC2-KO mice, group mean (Mean 2), N=6): 55.56
TG in liver_CT2KO, mean ([5]; liver, CRTC2-KO mice, group mean, N=6): 20.79 mg/g protein
TG in liver_CT2KO ([5]; liver, CRTC2-KO mice, individual animals, Supp.fig.5c): 21.7349 mg/g protein and 16.8626 mg/g protein and 22.9286 mg/g protein and 13.5919 mg/g protein and 26.3275 mg/g protein and 23.2939 mg/g protein
TC in liver_WT, Mean Diff. VEH vs. drug ([5]; liver, WT mice, VEH minus drug): 4.549
TG in liver_WT, Mean Diff. vs. VEH ([5]; liver, WT mice, drug minus VEH): -8.336 mg/g protein
TC in liver_WT, mean ([5]; liver, WT mice, group mean (Mean 2), N=6): 55.81
TG in liver_WT, mean ([5]; liver, WT mice, group mean, N=6): 11.62 mg/g protein
TG in liver_WT ([5]; liver, WT mice, individual animals, Supp.fig.5c): 22.699 mg/g protein and 6.6923 mg/g protein and 14.0154 mg/g protein and 7.7587 mg/g protein and 8.152 mg/g protein and 10.4144 mg/g protein
